Source: PubChem BioAssay AID1963446 (Molecular Pharmacology Branch, DTP, NCI, 2024)
Where “and” joins values, the source holds several entries; their conditions need not be identical. Equal entries are not always repeated.

Tested on: 993429-296-R-J1-PDC complex spheroid growth, percent test/control
Assay: Anticancer human tumor 993429-296-R-J1-PDC patient-derived uterine sarcoma cell line growth inhibition [Asc]
Settings: for viability, T/C: stronger effect = lower value
Procedure, shortened: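 Complex spheroids combining tumor cells with HUVEC endothelial cells and human MSCs, at 37 degrees C, 5% CO2; agents tested alone or combined, half-log dilutions from at or near clinical Cmax, or 10 microM if Cmax unknown.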

[1] = curve of first compound, second compound 0.1 µM
[2] = curve of first compound, second compound 0.316 µM
[3] = curve of first compound, second compound 1 µM
[4] = curve of first compound, second compound 3.16 µM
[5] = curve of first compound, second compound 10 µM
[6] = second compound 0.1 µM, first compound 0.00316 µM
[7] = second compound 0.1 µM, first compound 0.01 µM
[8] = second compound 0.1 µM, first compound 0.0316 µM
[9] = second compound 0.1 µM, first compound 0.1 µM
[10] = second compound 0.1 µM, first compound 0.316 µM
[11] = second compound 0.1 µM, first compound 1 µM
[12] = second compound 0.316 µM, first compound 0.00316 µM
[13] = second compound 0.316 µM, first compound 0.01 µM
[14] = second compound 0.316 µM, first compound 0.0316 µM
[15] = second compound 0.316 µM, first compound 0.1 µM
[16] = second compound 0.316 µM, first compound 0.316 µM
[17] = second compound 0.316 µM, first compound 1 µM
[18] = second compound 1 µM, first compound 0.00316 µM
[19] = second compound 1 µM, first compound 0.01 µM
[20] = second compound 1 µM, first compound 0.0316 µM
[21] = second compound 1 µM, first compound 0.1 µM
[22] = second compound 1 µM, first compound 0.316 µM
[23] = second compound 1 µM, first compound 1 µM
[24] = second compound 3.16 µM, first compound 0.00316 µM
[25] = second compound 3.16 µM, first compound 0.01 µM
[26] = second compound 3.16 µM, first compound 0.0316 µM
[27] = second compound 3.16 µM, first compound 0.1 µM
[28] = second compound 10 µM, first compound 0.00316 µM
[29] = second compound 10 µM, first compound 0.01 µM
[30] = second compound 10 µM, first compound 0.0316 µM
[31] = second compound 10 µM, first compound 0.1 µM
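Note: spheroids exposed to compounds for seven days.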

`COc1c(OCCCN2CCOCC2)ccc2c3n(c(=NC(=O)c4cnc(N)nc4)nc12)CCN3` + Cc1c(S(C)(=O)=O)c(-c2cc(F)cc(N3CCN(c4ccc(NS(=O)(=O)c5ccc(NC(CCN6CCC(C(=O)OCCCP(=O)(O)O)CC6)CSc6ccccc6)c(S(=O)(=O)C(F)(F)F)c5)cc4)CC3)c2)c(-c2ccc(Cl)cc2)n1C(C)C showed an IC50 [1] of 12.6 nM, an IC50 [2] of 11.6 nM and an IC50 [3] of 4.23 nM. For the same compound, the IC50 [4] was less than 3.16 nM, the IC50 [5] was 10.1 nM and the viability, T/C [6] was 76.5%. The viability, T/C [7] was 54.1%, the viability, T/C [8] was 29.3% and the viability, T/C [9] was 3.96%. It also gave a viability, T/C [10] of 1.63%, a viability, T/C [11] of 0.23% and a viability, T/C [12] of 71.7%. It also gave a viability, T/C [13] of 54%, a viability, T/C [14] of 22.2% and a viability, T/C [15] of 3.44%. It also gave a viability, T/C [16] of 0.88%, a viability, T/C [17] of 0.17% and a viability, T/C [18] of 54.2%. For the same compound, the viability, T/C [19] was 37.9%, the viability, T/C [20] was 23.3% and the viability, T/C [21] was 3.11%. For the same compound, the viability, T/C [22] was 0.68%, the viability, T/C [23] was 0.31% and the viability, T/C [24] was 35.8%. For the same compound, the viability, T/C [25] was 33.7%, the viability, T/C [26] was 14.8% and the viability, T/C [27] was 2.35%. The viability, T/C (second compound 3.16 µM, first compound 0.316 µM) was 0.33%, the viability, T/C (second compound 3.16 µM, first compound 1 µM) was 0.18% and the viability, T/C [28] was 79.3%. The viability, T/C [29] was 49.4%, the viability, T/C [30] was 20.7% and the viability, T/C [31] was 1.24%. The viability, T/C (second compound 10 µM, first compound 0.316 µM) was 0.28% and the viability, T/C (second compound 10 µM, first compound 1 µM) was 0.25%.
In the case of `CCN1C(C(=O)NC23CCC(C(=O)O)(CC2)CC3)C(c2cccc(Cl)c2F)C2(C(=O)Nc3cc(Cl)ccc32)C12CCCCC2` (stereo not drawn), the viability, T/C (compound 0.00949 µM) is reported as 92.7% and 92.5%, the IC50 (compound alone, run of 09/27/2022) is reported as greater than 3000 nM and the IC50 (curve of compound) is reported as greater than 3000 nM.
In the case of `NC1CCC(NC2CC2c2ccccc2)CC1` (stereo not drawn) + Cc1c(S(C)(=O)=O)c(-c2cc(F)cc(N3CCN(c4ccc(NS(=O)(=O)c5ccc(NC(CCN6CCC(C(=O)OCCCP(=O)(O)O)CC6)CSc6ccccc6)c(S(=O)(=O)C(F)(F)F)c5)cc4)CC3)c2)c(-c2ccc(Cl)cc2)n1C(C)C, the IC50 [1] is reported as greater than 100 nM, the IC50 [2] is reported as 8.25 nM and the IC50 [3] is reported as less than 0.316 nM. For the same compound, the IC50 [4] was less than 0.316 nM, the IC50 [5] was less than 0.316 nM and the viability, T/C (second compound 0.1 µM, first compound 0.000316 µM) was 72.7%. The viability, T/C (second compound 0.1 µM, first compound 0.001 µM) was 65.1%, the viability, T/C [6] was 65% and the viability, T/C [7] was 57.6%. It also gave a viability, T/C [8] of 65.2%, a viability, T/C [9] of 65.3% and a viability, T/C (second compound 0.316 µM, first compound 0.000316 µM) of 61.2%. For the same compound, the viability, T/C (second compound 0.316 µM, first compound 0.001 µM) was 60.9%, the viability, T/C [12] was 57% and the viability, T/C [13] was 46.4%. The viability, T/C [14] was 47.9%, the viability, T/C [15] was 51.6% and the viability, T/C (second compound 1 µM, first compound 0.000316 µM) was 32.5%. It also gave a viability, T/C (second compound 1 µM, first compound 0.001 µM) of 30.4%, a viability, T/C [18] of 29.1% and a viability, T/C [19] of 30.5%. It also gave a viability, T/C [20] of 28.3%, a viability, T/C [21] of 35.4% and a viability, T/C (second compound 3.16 µM, first compound 0.000316 µM) of 27%. For the same compound, the viability, T/C (second compound 3.16 µM, first compound 0.001 µM) was 28.9%, the viability, T/C [24] was 28.6% and the viability, T/C [25] was 25.6%. The viability, T/C [26] was 30.5%, the viability, T/C [27] was 31.7% and the viability, T/C (second compound 10 µM, first compound 0.000316 µM) was 30%. It also gave a viability, T/C (second compound 10 µM, first compound 0.001 µM) of 41.7%, a viability, T/C [28] of 26.4% and a viability, T/C [29] of 26.3%. It also gave a viability, T/C [30] of 32.9% and a viability, T/C [31] of 36.8%.
`C#Cc1c(F)ccc2cc(O)cc(-c3ncc4c(N5CC6CCC(C5)N6)nc(OCC56CCCN5CC(F)C6)nc4c3F)c12` (stereo not drawn) + CCN1C(C(=O)NC23CCC(C(=O)O)(CC2)CC3)C(c2cccc(Cl)c2F)C2(C(=O)Nc3cc(Cl)ccc32)C12CCCCC2 showed an IC50 (curve of first compound, second compound 0.03 µM) of 5140 nM, an IC50 (curve of first compound, second compound 0.0949 µM) of 5400 nM and an IC50 (curve of first compound, second compound 0.3 µM) of 5550 nM. It also gave an IC50 (curve of first compound, second compound 0.949 µM) of 5320 nM, an IC50 (curve of first compound, second compound 3 µM) of 4940 nM and a viability, T/C (second compound 0.03 µM, first compound 0.0316 µM) of 93.3%. It also gave a viability, T/C (second compound 0.03 µM, first compound 0.1 µM) of 96.5%, a viability, T/C (second compound 0.03 µM, first compound 0.316 µM) of 106% and a viability, T/C (second compound 0.03 µM, first compound 1 µM) of 84%. For the same compound, the viability, T/C (second compound 0.03 µM, first compound 3.16 µM) was 86.3%, the viability, T/C (second compound 0.03 µM, first compound 10 µM) was 2.52% and the viability, T/C (second compound 0.0949 µM, first compound 0.0316 µM) was 96.1%. The viability, T/C (second compound 0.0949 µM, first compound 0.1 µM) was 95.4%, the viability, T/C (second compound 0.0949 µM, first compound 0.316 µM) was 83.8% and the viability, T/C (second compound 0.0949 µM, first compound 1 µM) was 115%. The viability, T/C (second compound 0.0949 µM, first compound 3.16 µM) was 86.2%, the viability, T/C (second compound 0.0949 µM, first compound 10 µM) was 8.51% and the viability, T/C (second compound 0.3 µM, first compound 0.0316 µM) was 87.8%. The viability, T/C (second compound 0.3 µM, first compound 0.1 µM) was 95.3%, the viability, T/C (second compound 0.3 µM, first compound 0.316 µM) was 90.3% and the viability, T/C (second compound 0.3 µM, first compound 1 µM) was 117%. It also gave a viability, T/C (second compound 0.3 µM, first compound 3.16 µM) of 92.2%, a viability, T/C (second compound 0.3 µM, first compound 10 µM) of 5.39% and a viability, T/C (second compound 0.949 µM, first compound 0.0316 µM) of 104%. For the same compound, the viability, T/C (second compound 0.949 µM, first compound 0.1 µM) was 98.5%, the viability, T/C (second compound 0.949 µM, first compound 0.316 µM) was 107% and the viability, T/C (second compound 0.949 µM, first compound 1 µM) was 98.5%. It also gave a viability, T/C (second compound 0.949 µM, first compound 3.16 µM) of 89.8%, a viability, T/C (second compound 0.949 µM, first compound 10 µM) of 1.38% and a viability, T/C (second compound 3 µM, first compound 0.0316 µM) of 100%. For the same compound, the viability, T/C (second compound 3 µM, first compound 0.1 µM) was 96.7%, the viability, T/C (second compound 3 µM, first compound 0.316 µM) was 96.6% and the viability, T/C (second compound 3 µM, first compound 1 µM) was 109%. For the same compound, the viability, T/C (second compound 3 µM, first compound 3.16 µM) was 73.5% and the viability, T/C (second compound 3 µM, first compound 10 µM) was 12.8%.
For `CCN1CCN(Cc2ccc(Nc3ncc(F)c(-c4cc(F)c5nc(C)n(C(C)C)c5c4)n3)nc2)CC1` + CNC(C)C(=O)NC1CN(S(=O)(=O)c2cccc(S(=O)(=O)N3CCC4CCC(C(=O)NC(c5ccccc5)c5ccccc5)N4C(=O)C(NC(=O)C(C)NC)C3)c2)CCC2CCC(C(=O)NC(c3ccccc3)c3ccccc3)N2C1=O, the IC50 (curve of first compound, second compound 0.01 µM) was greater than 1000 nM, the IC50 (curve of first compound, second compound 0.0316 µM) was greater than 1000 nM and the IC50 [1] was greater than 1000 nM. It also gave an IC50 [2] of less than 3.16 nM, an IC50 [3] greater than 1000 nM and a viability, T/C (second compound 0.01 µM, first compound 0.00316 µM) of 58.4%. The viability, T/C (second compound 0.01 µM, first compound 0.01 µM) was 66.1%, the viability, T/C (second compound 0.01 µM, first compound 0.0316 µM) was 64% and the viability, T/C (second compound 0.01 µM, first compound 0.1 µM) was 68.4%. The viability, T/C (second compound 0.01 µM, first compound 0.316 µM) was 67.7%, the viability, T/C (second compound 0.01 µM, first compound 1 µM) was 76% and the viability, T/C (second compound 0.0316 µM, first compound 0.00316 µM) was 54.1%. For the same compound, the viability, T/C (second compound 0.0316 µM, first compound 0.01 µM) was 63.4%, the viability, T/C (second compound 0.0316 µM, first compound 0.0316 µM) was 59.5% and the viability, T/C (second compound 0.0316 µM, first compound 0.1 µM) was 53.6%. The viability, T/C (second compound 0.0316 µM, first compound 0.316 µM) was 71.4%, the viability, T/C (second compound 0.0316 µM, first compound 1 µM) was 77.4% and the viability, T/C [6] was 52%. It also gave a viability, T/C [7] of 54%, a viability, T/C [8] of 56.2% and a viability, T/C [9] of 54%. It also gave a viability, T/C [10] of 59.8%, a viability, T/C [11] of 62.4% and a viability, T/C [12] of 45.3%. It also gave a viability, T/C [13] of 46.2%, a viability, T/C [14] of 41% and a viability, T/C [15] of 53.2%. It also gave a viability, T/C [16] of 69%, a viability, T/C [17] of 70% and a viability, T/C [18] of 53.5%. The viability, T/C [19] was 58.7%, the viability, T/C [20] was 38.9% and the viability, T/C [21] was 51.4%. It also gave a viability, T/C [22] of 49.6% and a viability, T/C [23] of 60.3%.
